Laboratory results: the NIST ThermoML archive (doi:10.1021/acs.jced.7b00119)
± gives the expanded uncertainty stated by the source.

What was measured:
[1] = excess molar enthalpy (molar enthalpy of mixing); xn = mol fraction of the nth substance listed; settings: Liquid, Flow calorimetry
[2] = 353.15 K; Liquid; Closed cell (Static) method

CC(=O)N(C)C [N,N-dimethylethanamide] + Cc1ccccc1
[1]
Settings | excess molar enthalpy [kJ/mol]
363.15 K, 1955 kPa, x2 = 0.0436 | 0.0158 ± 0.0044
363.15 K, 1955 kPa, x2 = 0.0878 | 0.0287 ± 0.0047
363.15 K, 1955 kPa, x2 = 0.1327 | 0.0425 ± 0.005
363.15 K, 1955 kPa, x2 = 0.1781 | 0.0559 ± 0.0052
363.15 K, 1955 kPa, x2 = 0.2242 | 0.0681 ± 0.0055
363.15 K, 1955 kPa, x2 = 0.2709 | 0.0809 ± 0.0058
363.15 K, 1955 kPa, x2 = 0.3182 | 0.097 ± 0.0061
363.15 K, 1955 kPa, x2 = 0.3662 | 0.11 ± 0.006
363.15 K, 1955 kPa, x2 = 0.4149 | 0.122 ± 0.007
363.15 K, 1955 kPa, x2 = 0.4643 | 0.133 ± 0.007
363.15 K, 1955 kPa, x2 = 0.5144 | 0.144 ± 0.007
363.15 K, 1955 kPa, x2 = 0.5652 | 0.151 ± 0.007
363.15 K, 1955 kPa, x2 = 0.6168 | 0.154 ± 0.007
363.15 K, 1955 kPa, x2 = 0.6691 | 0.159 ± 0.007
363.15 K, 1955 kPa, x2 = 0.7222 | 0.161 ± 0.007
363.15 K, 1955 kPa, x2 = 0.7761 | 0.157 ± 0.007
363.15 K, 1955 kPa, x2 = 0.8308 | 0.146 ± 0.007
363.15 K, 1955 kPa, x2 = 0.8864 | 0.121 ± 0.007
363.15 K, 1955 kPa, x2 = 0.9428 | 0.0745 ± 0.0056
413.15 K, 1824 kPa, x2 = 0.022 | 0.0105 ± 0.0043
413.15 K, 1824 kPa, x2 = 0.0441 | 0.0221 ± 0.0045
413.15 K, 1824 kPa, x2 = 0.0887 | 0.0403 ± 0.0049
413.15 K, 1824 kPa, x2 = 0.1338 | 0.0587 ± 0.0053
413.15 K, 1824 kPa, x2 = 0.1796 | 0.0779 ± 0.0057
413.15 K, 1824 kPa, x2 = 0.2259 | 0.0942 ± 0.006
413.15 K, 1824 kPa, x2 = 0.2728 | 0.111 ± 0.006
413.15 K, 1824 kPa, x2 = 0.3204 | 0.13 ± 0.007
413.15 K, 1824 kPa, x2 = 0.3686 | 0.148 ± 0.007
413.15 K, 1824 kPa, x2 = 0.4174 | 0.17 ± 0.008
413.15 K, 1824 kPa, x2 = 0.4668 | 0.188 ± 0.008
413.15 K, 1824 kPa, x2 = 0.5169 | 0.203 ± 0.008
413.15 K, 1824 kPa, x2 = 0.5677 | 0.219 ± 0.009
413.15 K, 1824 kPa, x2 = 0.6192 | 0.232 ± 0.009
413.15 K, 1824 kPa, x2 = 0.6714 | 0.239 ± 0.009
413.15 K, 1824 kPa, x2 = 0.7243 | 0.241 ± 0.009
413.15 K, 1824 kPa, x2 = 0.7779 | 0.233 ± 0.009
413.15 K, 1824 kPa, x2 = 0.8323 | 0.208 ± 0.008
413.15 K, 1824 kPa, x2 = 0.8874 | 0.17 ± 0.008
413.15 K, 1824 kPa, x2 = 0.9433 | 0.103 ± 0.006
413.15 K, 1824 kPa, x2 = 0.9715 | 0.0561 ± 0.0052

ClCCl [dichloromethane] + CC(=O)N(C)C
[1], 323.15 K, 1273 kPa
Settings | excess molar enthalpy [kJ/mol]
x1 = 0.0709 | -0.424 ± 0.013
x1 = 0.1387 | -0.788 ± 0.021
x1 = 0.2037 | -1.11 ± 0.028
x1 = 0.2659 | -1.37 ± 0.033
x1 = 0.3257 | -1.59 ± 0.038
x1 = 0.3831 | -1.72 ± 0.041
x1 = 0.4383 | -1.83 ± 0.043
x1 = 0.4914 | -1.9 ± 0.044
x1 = 0.5425 | -1.92 ± 0.045
x1 = 0.5917 | -1.91 ± 0.044
x1 = 0.6391 | -1.84 ± 0.043
x1 = 0.6849 | -1.75 ± 0.041
x1 = 0.7291 | -1.61 ± 0.038
x1 = 0.7718 | -1.46 ± 0.035
x1 = 0.813 | -1.27 ± 0.031
x1 = 0.8529 | -1.05 ± 0.026
x1 = 0.8914 | -0.815 ± 0.021
x1 = 0.9288 | -0.554 ± 0.016
x1 = 0.965 | -0.285 ± 0.01

CCOC(C)=O [ethyl acetate]
Settings | vapor or sublimation pressure [kPa]
[2] | 111.76 ± 0.41

CC(=O)N(C)C [N,N-dimethylethanamide] + CCCCCC
[1]
Settings | excess molar enthalpy [kJ/mol]
363.15 K, 1982 kPa, x2 = 0.0358 | 0.234 ± 0.009
363.15 K, 1982 kPa, x2 = 0.0726 | 0.477 ± 0.014
363.15 K, 1982 kPa, x2 = 0.1106 | 0.704 ± 0.019
363.15 K, 1982 kPa, x2 = 0.1498 | 0.913 ± 0.023
363.15 K, 1982 kPa, x2 = 0.1902 | 1.1 ± 0.027
363.15 K, 1982 kPa, x2 = 0.2319 | 1.26 ± 0.031
363.15 K, 1982 kPa, x2 = 0.275 | 1.41 ± 0.034
363.15 K, 1982 kPa, x2 = 0.3196 | 1.53 ± 0.037
363.15 K, 1982 kPa, x2 = 0.3657 | 1.63 ± 0.039
363.15 K, 1982 kPa, x2 = 0.4134 | 1.71 ± 0.04
363.15 K, 1982 kPa, x2 = 0.4627 | 1.75 ± 0.041
363.15 K, 1982 kPa, x2 = 0.5138 | 1.78 ± 0.042
363.15 K, 1982 kPa, x2 = 0.5668 | 1.78 ± 0.042
363.15 K, 1982 kPa, x2 = 0.6218 | 1.75 ± 0.041
363.15 K, 1982 kPa, x2 = 0.6788 | 1.67 ± 0.04
363.15 K, 1982 kPa, x2 = 0.7381 | 1.55 ± 0.037
363.15 K, 1982 kPa, x2 = 0.7997 | 1.36 ± 0.033
363.15 K, 1982 kPa, x2 = 0.8638 | 1.08 ± 0.027
363.15 K, 1982 kPa, x2 = 0.9305 | 0.657 ± 0.018
413.15 K, 1824 kPa, x2 = 0.0179 | 0.121 ± 0.007
413.15 K, 1824 kPa, x2 = 0.0361 | 0.247 ± 0.009
413.15 K, 1824 kPa, x2 = 0.0733 | 0.49 ± 0.014
413.15 K, 1824 kPa, x2 = 0.1116 | 0.711 ± 0.019
413.15 K, 1824 kPa, x2 = 0.151 | 0.913 ± 0.023
413.15 K, 1824 kPa, x2 = 0.1917 | 1.1 ± 0.027
413.15 K, 1824 kPa, x2 = 0.2337 | 1.27 ± 0.031
413.15 K, 1824 kPa, x2 = 0.277 | 1.42 ± 0.034
413.15 K, 1824 kPa, x2 = 0.3217 | 1.54 ± 0.037
413.15 K, 1824 kPa, x2 = 0.3679 | 1.66 ± 0.039
413.15 K, 1824 kPa, x2 = 0.4157 | 1.76 ± 0.041
413.15 K, 1824 kPa, x2 = 0.4651 | 1.81 ± 0.042
413.15 K, 1824 kPa, x2 = 0.5163 | 1.85 ± 0.043
413.15 K, 1824 kPa, x2 = 0.5692 | 1.85 ± 0.043
413.15 K, 1824 kPa, x2 = 0.6241 | 1.81 ± 0.042
413.15 K, 1824 kPa, x2 = 0.681 | 1.74 ± 0.041
413.15 K, 1824 kPa, x2 = 0.74 | 1.62 ± 0.038
413.15 K, 1824 kPa, x2 = 0.8013 | 1.41 ± 0.034
413.15 K, 1824 kPa, x2 = 0.8649 | 1.11 ± 0.027
413.15 K, 1824 kPa, x2 = 0.9311 | 0.661 ± 0.018
413.15 K, 1824 kPa, x2 = 0.9652 | 0.36 ± 0.012

CC(=O)N(C)C [N,N-dimethylethanamide] + CO
[1], 413.15 K, 1824 kPa
Settings | excess molar enthalpy [kJ/mol]
x2 = 0.1079 | -0.313 ± 0.011
x2 = 0.2034 | -0.543 ± 0.016
x2 = 0.2885 | -0.712 ± 0.019
x2 = 0.3648 | -0.822 ± 0.021
x2 = 0.4337 | -0.889 ± 0.023
x2 = 0.4961 | -0.921 ± 0.024
x2 = 0.553 | -0.924 ± 0.024
x2 = 0.605 | -0.906 ± 0.023
x2 = 0.6527 | -0.866 ± 0.022
x2 = 0.6967 | -0.823 ± 0.021
x2 = 0.7374 | -0.756 ± 0.02
x2 = 0.7751 | -0.684 ± 0.019
x2 = 0.8101 | -0.606 ± 0.017
x2 = 0.8428 | -0.523 ± 0.015
x2 = 0.8733 | -0.439 ± 0.013
x2 = 0.9019 | -0.355 ± 0.012
x2 = 0.9287 | -0.265 ± 0.01
x2 = 0.9539 | -0.177 ± 0.008
x2 = 0.9776 | -0.0892 ± 0.0059
